{
  "source": "patent US11958853B1",
  "about": "“6-substituted aminopyrazino[2′,1′:2,3]imidazo[4,5-c][1,7]naphthyridine compounds as CK2 inhibitors” (KING FAISAL UNIVERSITY, priority 2023, dated 2024)",
  "key": {"[1]": {"test_system": "MDA-MB-231 (breast) cancer cells", "experiment": "In vitro cytotoxic activity MTT assay, MDA-MB-231", "format": "cell-based", "conditions": "Homo sapiens; MDA-MB-231 cells, exposed for 96 hours, 50% inhibition of cell proliferation; read-out: Cytotoxicity IC50, MDA-MB-231 (breast)", "protocol": "(§1) Compounds 1-12 were screened for their in vitro cytotoxic activity utilizing a 3-(4,5-dimethyl-thiazol-2-yl)-2,5-diphenyltetrazolium bromide (MTT) assay against selected cancer human cell lines consisting of PC3 (prostate), HCT116 (colon), A375 (melanoma), H1299 (lung), MIAPaCa-2 (pancreas), HL60 (leukemia), MCF7 (breast), MDA-MB-231 (breast) (T. Mosmann, J. Immunol. Meth., 1983, 65, 55-63). The cells were cultured at 37° C. in RMPI1640 medium supplemented with 10% fetal bovine serum, 50 IU/mL penicillin, and 50 μg/mL streptomycin in a 5% CO2 incubator. All cells were sub-cultured 3 times/week by trypsinisation. Viable cells were seeded and allowed to adhere for 12 h before a test drug was added in 96-well plates at an initial density of 1.0×10^5 cells/mL. Tumour cell lines were separately exposed to various concentrations of the tested compounds followed by incubation at a temperature of 37° C. during 96 h inside a medium of fresh RMPI 1640. Cells were subsequently incubated at 37° C. using MTT at 0.5 mg/mL during 4 h. After removal of supernatant, formazan crystals were dissolved in isopropanol and the optical density was measured at 570 nm. CX-4945 was used as a positive control."}, "[2]": {"test_system": "H1299 (lung) cancer cells", "experiment": "In vitro cytotoxic activity MTT assay, H1299", "format": "cell-based", "conditions": "Homo sapiens, NCI-H1299, exposed for 96 hours, 50% inhibition of cell proliferation, read-out: Cytotoxicity IC50, H1299 (lung)", "protocol": "as §1"}, "[3]": {"test_system": "A375 (melanoma) cancer cells", "experiment": "In vitro cytotoxic activity MTT assay, A375", "format": "cell-based", "conditions": "Homo sapiens, A-375, exposed for 96 hours, 50% inhibition of cell proliferation, read-out: Cytotoxicity IC50, A375 (melanoma)", "protocol": "as §1"}, "[4]": {"test_system": "PC3 (prostate) cancer cells", "experiment": "In vitro cytotoxic activity MTT assay, PC3", "format": "cell-based", "conditions": "Homo sapiens, PC-3, exposed for 96 hours, 50% inhibition of cell proliferation, read-out: Cytotoxicity IC50, PC3 (prostate)", "protocol": "as §1"}, "[5]": {"test_system": "MIAPaCa-2 (pancreas) cancer cells", "experiment": "In vitro cytotoxic activity MTT assay, MIAPaCa-2", "format": "cell-based", "conditions": "Homo sapiens, MIA PaCa-2; MIAPaCa-2 cells, exposed for 96 hours, 50% inhibition of cell proliferation; read-out: Cytotoxicity IC50, MIAPaCa-2 (pancreas)", "protocol": "as §1"}, "[6]": {"test_system": "MCF7 (breast) cancer cells", "experiment": "In vitro cytotoxic activity MTT assay, MCF7", "format": "cell-based", "conditions": "Homo sapiens, exposed for 96 hours, 50% inhibition of cell proliferation, read-out: Cytotoxicity IC50, MCF7 (breast)", "protocol": "as §1"}, "[7]": {"target": "T1, recombinant human CK2 (RRββ-holoenzyme) (Homo sapiens, UniProt P68400)", "T1 construct": "purchased Millipore", "T1 sequence (P68400 whole entry)": "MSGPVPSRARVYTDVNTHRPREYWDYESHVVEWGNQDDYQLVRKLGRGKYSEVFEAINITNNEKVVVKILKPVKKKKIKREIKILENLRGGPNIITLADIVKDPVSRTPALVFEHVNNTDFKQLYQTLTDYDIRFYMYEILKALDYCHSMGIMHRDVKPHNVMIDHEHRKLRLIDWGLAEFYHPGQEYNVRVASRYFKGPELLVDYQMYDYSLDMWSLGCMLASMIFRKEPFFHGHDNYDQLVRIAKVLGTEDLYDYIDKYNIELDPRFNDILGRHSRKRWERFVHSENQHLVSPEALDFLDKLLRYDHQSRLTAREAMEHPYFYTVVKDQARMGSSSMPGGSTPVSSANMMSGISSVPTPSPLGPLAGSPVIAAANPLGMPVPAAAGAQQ", "T1 sequence (P67870 whole entry partner)": "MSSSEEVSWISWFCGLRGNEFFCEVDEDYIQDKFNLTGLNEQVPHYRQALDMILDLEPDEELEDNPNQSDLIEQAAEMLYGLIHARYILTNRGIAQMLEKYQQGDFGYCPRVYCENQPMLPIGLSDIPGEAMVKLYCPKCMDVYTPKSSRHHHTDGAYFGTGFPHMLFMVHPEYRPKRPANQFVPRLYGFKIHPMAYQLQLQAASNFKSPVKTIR", "experiment": "CK2 Kinase Assay (33P-ATP, filter plate)", "format": "biochemical", "conditions": "final ATP concentration 15 μM, 10 min at 30° C, eight concentrations; read-out: protein kinase CK2 IC50", "protocol": "CK2 Kinase Assay was conducted using the protocol as described in Pierre F. et al; J. Med. Chem. 2011, 54, 635-654. The tested compounds in aqueous solution were added at a volume of 10 μL to a reaction mixture comprising 10 μL of assay dilution buffer (ADB; 20 mM MOPS, pH 7.2, 25 mM β-glycerol phosphate, 5 mM EGTA, 1 mM sodium orthovanadate, and 1 mM dithiothreitol), 10 μL of substrate peptide (RRRDDDSDDD, dissolved in ADB at a concentration of 1 mM), 10 μL of recombinant human CK2 (RRββ-holoenzyme, 25 ng dissolved in ADB; Millipore). Reactions were initiated by the addition of 10 μL of ATP solution (90% 75 mM MgCl2, 75 μM ATP (final ATP concentration: 15 μM) dissolved in ADB; 10% [γ-33P] ATP (stock 1 mCi/100 μL; 3000 Ci/mmol (Perkin-Elmer) and maintained for 10 min at 30° C. The reactions were quenched with 100 μL of 0.75% phosphoric acid and then transferred to and filtered through a phosphor cellulose filter plate (Millipore). After washing each well five times with 0.75% phosphoric acid, the plate was dried under vacuum for 5 min and, following the addition of 15 μL of scintillation fluid to each well, the residual radioactivity was measured using a Wallac […] counter. The IC50 values were derived from eight concentrations of test inhibitors."}, "[8]": {"test_system": "HL60 (leukemia) cancer cells", "experiment": "In vitro cytotoxic activity MTT assay, HL60", "format": "cell-based", "conditions": "Homo sapiens, HL-60, exposed for 96 hours, 50% inhibition of cell proliferation, read-out: Cytotoxicity IC50, HL60 (leukemia)", "protocol": "as §1"}, "[9]": {"test_system": "HCT116 (colon) cancer cells", "experiment": "In vitro cytotoxic activity MTT assay, HCT116", "format": "cell-based", "conditions": "Homo sapiens, HCT-116, exposed for 96 hours, 50% inhibition of cell proliferation, read-out: Cytotoxicity IC50, HCT116 (colon)", "protocol": "as §1"}},
  "data": [
    {"molecule": "Clc1cccc(Nc2nc3cnccc3c3nc4cnccn4c23)c1", "note": "[Compound 1, N-(3-chlorophenyl)pyrazino[2′,1′:2,3]imidazo[4,5-c][1,7]naphthyridin-6-amine]", "values": [
      {"measurement": "IC50", "setting": "[1]", "result": 4.8, "unit": "µM"},
      {"measurement": "IC50", "setting": "[2]", "result": 1900, "unit": "nM"},
      {"measurement": "IC50", "setting": "[3]", "result": 3.1, "unit": "µM"},
      {"measurement": "IC50", "setting": "[4]", "result": 1100, "unit": "nM"},
      {"measurement": "IC50", "setting": "[5]", "result": 1200, "unit": "nM"},
      {"measurement": "IC50", "setting": "[6]", "result": 5.6, "unit": "µM"},
      {"measurement": "IC50", "setting": "[7]", "result": 18, "unit": "nM"},
      {"measurement": "IC50", "setting": "[8]", "result": 3.3, "unit": "µM"},
      {"measurement": "IC50", "setting": "[9]", "result": 1400, "unit": "nM"}
    ]}
  ]
}
